Results: patent publication US20240335395A1, “COMPOSITIONS AND METHODS FOR PREVENTING AND/OR TREATING DISEASE ASSOCIATED WITH IL-23 EXPRESSION” (ALLSPIM, priority 2021, published 2024)

What was measured:
IL-6 = test: MSU-induced IL-6 in knee joint tissue (multiplex microassay); type: in vivo, mouse; conditions: 2,4-D 100 mg/kg, CLC 1 mg/kg, DEX 0.5 mg/kg
Experimental: Mice (six per group) were treated with 2,4-D (100 mg/kg or 20 mg/kg, i.p.), CLC (1 mg/kg or 0.2 mg/kg, i.p.), DEX (0.5 mg/kg or 0.1 mg/kg, i.p.), or vehicle (20% polyoxyethylenesorbitan monooleate (Tween 80) plus PBS) 30 min before intra-articular stimulus with MSU (100 μg/10 μL, i.a.). Six mice with intra-articular injection with PBS alone served as a negative control.
Induction of MSU-Induced Knee Joint Inflammation. Male ICR (CD-1) mice (35-45 g, 10-12 weeks) were purchased from VitalRiver Inc (Beijing, China) and were kept in an animal care facility under controlled temperature of 21±1° C., humidity, and on a light/dark cycle, with ad libitum access to water and standard laboratory chow diet. Animal care and handling procedures were approved by the Animal Ethics Committee of GZUCM (Guangzhou University of Chinese Medicine). All efforts were made to minimize animal suffering and to reduce the number of animals used. Joint inflammation was induced by the intra-articular (i.a.) administration of MSU (200 μg/20 μl) into the right and left knee joints of mice under inhaled 3% isoflurane anesthesia. Control animals received an injection (i.a.) of sterile PBS (20 μL).
Cytokine Measurement. Mice were anesthetized and sacrificed. Knee joints were collected and frozen in liquid nitrogen. Samples were then homogenized in 500 μl of buffer containing protease inhibitors, centrifuged (3600 rpm, 4° C., 15 min) and supernatants were used to determine Th1/Th2/Th17 cytokine levels using a multiplex microassay (Qantibody® mouse TH17 Array 1 kit, Cat. No.: QAM-TH17-1; RayBiotech, Norcross, GA). Results were expressed as picograms (pg) of cytokine/mg of tissue.
Statistical Analysis. […] For in vitro experiments, microassays were performed in quadruplicate. p<0.05 was considered significant (*p<0.05, **p<0.01, ***p<0.001).

[1] = test system: IBA1 positive macrophage/microglia; test: Laser-induced CNV in rats, IBA-1 positive macrophages on RPE-choroid flat-mounts; type: in vivo, rat; conditions: intravitreous injection
Experimental: Animals. All experiments were performed in accordance with the European Communities Council Directive 86/609/EEC and approved by local ethical committees (#2541-2015110210279792 v3). Six- to eight-week-old male Long Evans rats from the Janvier Breeding Center (Le Genest-Saint-Isle, France) were used to create a rat model of choroidal neovascularization (CNV) used as a model of human wet macular degeneration. Laser-induced CNV. After anesthesia and dilation of the pupils, coverslips were positioned on the cornea as a contact glass. For rats, six or eight burns were performed 2 to 3 optic disc diameters away from the optic nerve with an Argon laser (532 nm) mounted on a slit lamp (175 mW, 0.1 s and 50 μm). Both eyes of animals received laser induction. The presence of a bubble witnessed the rupture of Bruch's membrane and confirmed a successful laser impact. Treatments. After laser photocoagulation, rats were divided into 3 treatment groups: —Intravitreous injection (IVT) of 2,4-D (identified as “new treatment”, New T), —IVT of vehicle (PBS), —IVT of triamcinolone acetonide (Kenacort® 40 mg/ml; TA) (n=12 rats per group). The IVT consisted of 5 μl injected with a 31G needle mounted on a micro-thin (100 μl) syringe posterior to the limbus, avoiding the lens. IVT was performed immediately after laser had been performed. […]

IL-23 gene (IL-23p19) = test: IL-23 gene expression (RT-qPCR) in LPS-stimulated THP-1 cell culture; type: cell-based, human; conditions: THP-1, LPS 10 ng/ml, 2 h
Experimental: (§1) The THP-1 cell line (TIB-202) was obtained from the American Type Culture Collection (ATCC, USA), grown in RPMI 1640 culture medium (Gibco) supplemented with 10% fetal bovine serum (Gibco, UK), 50 U/mL penicillin-streptomycin (Gibco), and 0.05 mM 2-Mercaptoethanol (Gibco). Cultured cells were plated into culture plates in appropriate volumes with a cell density of 500,000 cells/mL.
At two hours after stimulation with LPS (10 ng/ml) in the presence or not of 2,4-D at increasing concentrations, THP-1 cells from each experimental condition were directly lysed using TRIzol reagent (Invitrogen, USA) followed by RNA extraction according to the manufacturer's instructions. Finally, RNA was dissolved in 10 μL diethyl pyrocarbonate (DEPC)-treated water, quantified on a NanoDrop 2000 spectrophotometer (Thermo Scientific Inc., USA), and reverse-transcribed using the Super Script III First-Strand Synthesis System for RT-PCR kit (Thermo Scientific, USA) according to the manufacturer's instructions.
PCR was performed in duplicate using SYBR Green qPCR master mix (Takara Biomedical Technology Co., Ltd, Dalian, China) on an ABI 7500 Real-Time PCR System (Thermo, USA). […] The ΔΔCT method was used to quantify relative mRNA levels as described in User Bulletin #2 for the ABI PRISM 7700 Sequence Detection System (Applied Biosystems, 2001). […]

IL-23 = IL-23 production (ELISA of supernatant) in LPS-stimulated THP-1 cell culture, Examples 1 and 8; type: cell-based, human
Experimental: as §1
PCR was performed in duplicate using SYBR Green qPCR master mix (Takara Biomedical Technology Co., Ltd, Dalian, China) on an ABI 7500 Real-Time PCR System (Thermo, USA). The cycling program was as follows: denaturation at 95° C. for 15 s, 40 cycles of 95° C. for 15 s and extension at 60° C. for 60 s, followed by melt curve generation. The ΔΔCT method was used to quantify relative mRNA levels as described in User Bulletin #2 for the ABI PRISM 7700 Sequence Detection System (Applied Biosystems, 2001). The primer sequences used in this study are 5′-[…]-3′ (forward), 5′-[…]-3′ (reverse) for human IL-23p19 (SEQ ID NOs: 4 and 5, respectively); and 5′-ACAGTCCATGCCATCACTG-3′ (forward) and 5′-AGTAGAGGCAGGGATGATG-3′ for human GAPDH as a reference (SEQ ID NOs: 6 and 7, respectively). 24 hours after culture and treatments, supernatants were collected and IL-23 levels measured using the IL-23 Human Uncoated ELISA Kit (ThermoFisher Scientific Inc., USA) according to the manufacturer's instructions. A Varioskan LUX microplate reader (Thermo Fisher, USA) was used for the assay and 4-parameter logistic regression was used for data analysis. Two duplicates per sample were performed and results were averaged.
The anti-IL-23 activity of 2,4-D was compared with the commercially prescribed nonsteroidal anti-inflammatory drugs (NSAIDs:[…], Ibuprofen, and Aspirin) in the LPS-stimulated THP-1 cell culture system described above (Example 1)).

## COc1cc(O)c(OC)c(O)c1C(=O)/C=C/c1ccccc1 [2,4-D, 2′,4′-dihydroxy-3′,6′-dimethoxychalcone]
IL-6
  decrease of IL-6 in knee joint tissue: 7.6 fold
[1]
  number of infiltrating IBA-1 positive macrophages in CNV: important reduction
IL-23 gene (IL-23p19)
  IL-23 gene expression: strongly inhibited
IL-23; LPS-stimulated THP-1, 24 h
  decrease of IL-23 detected in culture supernatant: more than 90%
IL-23; LPS-stimulated THP-1, Example 8
  inhibition in IL-23 production/release in supernatant: 5 to 10 fold
IL-23; LPS-stimulated THP-1 cell culture
  concentration of maximum inhibition of IL-23 cytokine production: 20 µg/mL
